Laboratory results: patent US11236102B2, “Oxabicycloheptane prodrugs” (Lixte Biotechnology, Inc., priority 2015, dated 2022)
“And” between values parts separate entries of the source, which are not always exact repeats. Identical values can stand only once. Like-named read-outs stand apart in the source and are kept apart here.

Assay: in vivo
Set-up: species or system SD rats
Procedure: 105 was dissolved in 4% NaHCO3 in saline for IV administration. The detailed procedure of dosing solution preparation was presented in Appendix I.
Thirteen (13) animals were placed on the study. The animals in IV arm were free access to food and water. One extra animal was used for blank liver and plasma generation (5 mL per animal). The resulting blank liver and plasma was then applied to the development of bioanalytical method and sample bioanalysis for the entire study.
The IV injection was conducted via foot dorsal vein. Animals were free access to food and water before dose.
The animal is restrained manually. Approximately 150 μL of blood/time point is collected into sodium heparin tube via cardiac puncture for terminal bleeding (anesthetized under carbon dioxide). Blood sample will be put on ice and centrifuged to obtain plasma sample (2000 g, 5 min under 4° C.) within 10 minutes.
The animal will be euthanized with carbon dioxide inhalation. Open abdominal cavity with scissor to expose internal organs. Hold the carcass in an upright position and allow the organs to fall forward. Cut the connective tissues and remove the organs. Then the organs are rinsed with cold saline, dried on filtrate paper, placed into a screw-top tube and weighed, snap frozen by placing into dry-ice immediately.
Plasma and liver samples were stored at approximately −80° C. until analysis. The backup samples will be discarded after three weeks after in-life completion unless requested. The unused dosing solutions will be discarded within three weeks after completion of the study
Software: The PK parameters were determined by non-compartmental model of non-compartmental analysis tool, Pharsight Phoenix WinNonlin® 6.2 software.
Concentration data within 80%-120% of LLOQ was considered within normal instrumental variation and presented in the results. Terminal t1/2 calculation: Time points were automatic selected by “best fit” model for terminal half life estimation as the first option. Manual selection was applied when “best fit” could not well define the terminal phase.

[1] = IV 1 mg/kg, 0.25 hr, individual, 1 mg/kg
[2] = IV 1 mg/kg, 1 hr, individual, 1 mg/kg
[3] = IV 1 mg/kg, 2 hr, individual, 1 mg/kg

## CCN1CCN(C(=O)C2C3CCC(O3)C2C(=O)O)CC1 (stereo not drawn) [Compound 105]
105, IV 1 mg/kg, mean
  AUC(0-last) in liver: 1019 ng·h/g
[1]
  Liver-plasma concentration ratio of 105: 0.646
  liver concentration of 105: 988 ng/g
  plasma concentration of 105: 1530 ng/mL
[2]
  Liver-plasma concentration ratio of 105: 1.96
  liver concentration of 105: 446 ng/g
  plasma concentration of 105: 228 ng/mL
[3]
  Liver-plasma concentration ratio of 105: 2.19 and 6.09
  liver concentration of 105: 131 ng/g
  plasma concentration of 105: 45.2 ng/mL and 21.5 ng/mL
IV 1 mg/kg, 6 hr, individual
  liver concentration of 105: BQL
  plasma concentration of 105: BQL
IV 1 mg/kg, 6 hr, mean
  liver concentration of 105: BQL
  plasma concentration of 105: BQL
IV 1 mg/kg, 10 hr, individual
  liver concentration of 105: BQL
  plasma concentration of 105: BQL
IV 1 mg/kg, 10 hr, mean
  liver concentration of 105: BQL
  plasma concentration of 105: BQL
IV 1 mg/kg, 24 hr, individual
  liver concentration of 105: BQL
  plasma concentration of 105: BQL
IV 1 mg/kg, 24 hr, mean
  liver concentration of 105: BQL
  plasma concentration of 105: BQL
male, SD, rat, in vivo, iv, 1 mg/kg, IV 1 mg/kg, 0.25 hr, individual, read-out: Liver-plasma concentration ratio of 105
  Kp at 0.25 h: 0.554
male, SD, rat, in vivo, iv, 1 mg/kg, IV 1 mg/kg, 0.25 hr, individual, read-out: liver concentration of 105
  concentration at 0.25 hr: 1070 ng/g
male, SD, rat, in vivo, iv, 1 mg/kg, IV 1 mg/kg, 0.25 hr, individual, read-out: plasma concentration of 105
  concentration at 0.25 hr: 1930 ng/mL
male, SD, rat, in vivo, iv, 1 mg/kg, IV 1 mg/kg, 0.25 hr, mean, read-out: Liver-plasma concentration ratio of 105
  Kp at 0.25 h: 0.6
male, SD, rat, in vivo, iv, 1 mg/kg, IV 1 mg/kg, 0.25 hr, mean, read-out: liver concentration of 105
  concentration at 0.25 hr: 1030 ng/g
male, SD, rat, in vivo, iv, 1 mg/kg, IV 1 mg/kg, 0.25 hr, mean, read-out: plasma concentration of 105
  concentration at 0.25 hr: 1730 ng/mL
male, SD, rat, in vivo, iv, 1 mg/kg, IV 1 mg/kg, 1 hr, individual, read-out: Liver-plasma concentration ratio of 105
  Kp at 1 h: 2.19
male, SD, rat, in vivo, iv, 1 mg/kg, IV 1 mg/kg, 1 hr, individual, read-out: liver concentration of 105
  concentration at 1 h: 576 ng/g
male, SD, rat, in vivo, iv, 1 mg/kg, IV 1 mg/kg, 1 hr, individual, read-out: plasma concentration of 105
  concentration at 1 hr: 263 ng/mL
male, SD, rat, in vivo, iv, 1 mg/kg, IV 1 mg/kg, 1 hr, mean, read-out: Liver-plasma concentration ratio of 105
  Kp at 1 h: 2.07
male, SD, rat, in vivo, iv, 1 mg/kg, IV 1 mg/kg, 1 hr, mean, read-out: liver concentration of 105
  concentration at 1 h: 511 ng/g
male, SD, rat, in vivo, iv, 1 mg/kg, IV 1 mg/kg, 1 hr, mean, read-out: plasma concentration of 105
  concentration at 1 hr: 246 ng/mL
male, SD, rat, in vivo, iv, 1 mg/kg, IV 1 mg/kg, 2 hr, individual, read-out: liver concentration of 105
  concentration at 2 h: 99.2 ng/g
male, SD, rat, in vivo, iv, 1 mg/kg, IV 1 mg/kg, 2 hr, mean, read-out: Liver-plasma concentration ratio of 105
  Kp at 2 h: 4.14
male, SD, rat, in vivo, iv, 1 mg/kg, IV 1 mg/kg, 2 hr, mean, read-out: liver concentration of 105
  concentration at 2 h: 115 ng/g
male, SD, rat, in vivo, iv, 1 mg/kg, IV 1 mg/kg, 2 hr, mean, read-out: plasma concentration of 105
  concentration at 2 hr: 33.4 ng/mL
male, SD, rat, in vivo, 105 in liver, IV 1 mg/kg, mean, read-out: AUC(0-t)
  AUC(0-t): 1020
male, SD, rat, in vivo, 105 in liver, IV 1 mg/kg, mean, read-out: Cmax
  Cmax: 1030 ng/mL
male, SD, rat, in vivo, 105 in plasma, IV 1 mg/kg, mean
  MRT inf: 19.7 min
male, Sprague-Dawley, rat, in vivo, 105, IV 1 mg/kg, mean, read-out: Cmax in liver
  Cmax: 1030 ng/g
male, Sprague-Dawley, rat, in vivo, 105 in liver, IV 1 mg/kg, mean
  Tmax: 15 min
male, Sprague-Dawley, rat, in vivo, 105 in plasma, IV 1 mg/kg, mean
  clearance: 10.9 mL/min/kg
male, Sprague-Dawley, rat, in vivo, 105 in plasma, IV 1 mg/kg, mean, read-out: AUC(0-t) (AUClast)
  AUC(0-t): 1510 ng·h/mL
male, Sprague-Dawley, rat, in vivo, 105 in plasma, IV 1 mg/kg, mean, read-out: AUC(0-∞) (AUCINF)
  AUC(0-inf): 1530 ng·h/mL
male, Sprague-Dawley, rat, in vivo, 105 in plasma, IV 1 mg/kg, mean, read-out: Vss
  Vd: 0.215 L/kg
male, Sprague-Dawley, rat, in vivo, 105 in plasma, IV 1 mg/kg, mean, read-out: t1/2z (terminal half life) (converted)
  half-life: 18.5 min
